# Experiments:
# Homo sapiens = species on record: Homo sapiens; assay: Selectivity ratio of IC50 for FGR (unknown origin) to IC50 for BTK (unknown origin)
# [1] = target: Tyrosine-protein kinase Srms (Homo sapiens, UniProt Q9H3Y6); assay: Inhibition of SRMS (unknown origin)
# [2] = target: T1, Tyrosine-protein kinase TXK (Homo sapiens, UniProt P42681); assay: Inhibition of TXK (unknown origin)
# T1 sequence (P42681 whole entry): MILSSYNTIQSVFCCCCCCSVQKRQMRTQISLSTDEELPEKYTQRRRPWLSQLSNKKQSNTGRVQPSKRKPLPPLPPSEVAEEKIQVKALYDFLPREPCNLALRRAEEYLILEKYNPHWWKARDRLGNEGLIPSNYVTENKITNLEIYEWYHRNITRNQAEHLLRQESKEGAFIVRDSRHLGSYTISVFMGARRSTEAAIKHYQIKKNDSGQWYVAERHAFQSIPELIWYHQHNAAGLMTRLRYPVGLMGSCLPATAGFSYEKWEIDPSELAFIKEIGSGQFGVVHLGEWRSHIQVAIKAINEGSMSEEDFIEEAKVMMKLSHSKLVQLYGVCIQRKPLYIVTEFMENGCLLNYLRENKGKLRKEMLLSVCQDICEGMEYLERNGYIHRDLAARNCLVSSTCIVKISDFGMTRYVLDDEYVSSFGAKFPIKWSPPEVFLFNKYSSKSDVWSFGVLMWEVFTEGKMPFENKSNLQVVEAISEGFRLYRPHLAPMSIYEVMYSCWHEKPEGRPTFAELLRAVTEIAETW
# [3] = target: Tyrosine-protein kinase CSK (Homo sapiens, UniProt P41240); assay: Inhibition of CSK (unknown origin)
# [4] = target: Tyrosine-protein kinase FRK (Homo sapiens, UniProt P42685); assay: Inhibition of FRK (unknown origin)
# [5] = target: Tyrosine-protein kinase Lck (Homo sapiens, UniProt P06239); assay: Inhibition of LCK (unknown origin)
# Sequence of Tyrosine-protein kinase Lck (P06239 whole entry): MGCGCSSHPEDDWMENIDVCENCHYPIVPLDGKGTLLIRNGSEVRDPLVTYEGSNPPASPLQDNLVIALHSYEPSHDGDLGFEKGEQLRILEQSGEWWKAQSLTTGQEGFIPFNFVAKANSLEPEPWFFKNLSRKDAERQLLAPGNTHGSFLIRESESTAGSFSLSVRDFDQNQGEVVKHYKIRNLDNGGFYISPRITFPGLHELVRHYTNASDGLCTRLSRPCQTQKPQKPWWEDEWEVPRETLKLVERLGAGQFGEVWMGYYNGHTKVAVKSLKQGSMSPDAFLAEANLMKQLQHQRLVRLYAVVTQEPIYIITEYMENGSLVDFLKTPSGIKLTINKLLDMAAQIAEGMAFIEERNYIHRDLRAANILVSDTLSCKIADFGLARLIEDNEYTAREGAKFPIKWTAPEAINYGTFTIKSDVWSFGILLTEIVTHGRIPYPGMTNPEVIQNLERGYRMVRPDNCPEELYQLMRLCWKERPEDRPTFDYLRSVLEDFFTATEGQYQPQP
# Sequence of Tyrosine-protein kinase CSK (P41240 whole entry): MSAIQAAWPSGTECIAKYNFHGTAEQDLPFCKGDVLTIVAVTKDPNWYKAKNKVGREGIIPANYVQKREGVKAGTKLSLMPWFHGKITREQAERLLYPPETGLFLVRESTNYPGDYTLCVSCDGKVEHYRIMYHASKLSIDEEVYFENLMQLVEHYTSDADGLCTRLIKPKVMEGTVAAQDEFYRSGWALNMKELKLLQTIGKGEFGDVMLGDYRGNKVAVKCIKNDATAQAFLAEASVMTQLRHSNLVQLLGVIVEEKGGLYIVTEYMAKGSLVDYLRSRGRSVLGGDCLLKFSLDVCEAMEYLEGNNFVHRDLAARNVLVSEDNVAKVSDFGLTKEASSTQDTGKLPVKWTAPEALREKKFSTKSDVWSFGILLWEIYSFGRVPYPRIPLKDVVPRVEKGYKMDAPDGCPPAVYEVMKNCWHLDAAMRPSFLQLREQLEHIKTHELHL
# Sequence of Tyrosine-protein kinase Srms (Q9H3Y6 whole entry): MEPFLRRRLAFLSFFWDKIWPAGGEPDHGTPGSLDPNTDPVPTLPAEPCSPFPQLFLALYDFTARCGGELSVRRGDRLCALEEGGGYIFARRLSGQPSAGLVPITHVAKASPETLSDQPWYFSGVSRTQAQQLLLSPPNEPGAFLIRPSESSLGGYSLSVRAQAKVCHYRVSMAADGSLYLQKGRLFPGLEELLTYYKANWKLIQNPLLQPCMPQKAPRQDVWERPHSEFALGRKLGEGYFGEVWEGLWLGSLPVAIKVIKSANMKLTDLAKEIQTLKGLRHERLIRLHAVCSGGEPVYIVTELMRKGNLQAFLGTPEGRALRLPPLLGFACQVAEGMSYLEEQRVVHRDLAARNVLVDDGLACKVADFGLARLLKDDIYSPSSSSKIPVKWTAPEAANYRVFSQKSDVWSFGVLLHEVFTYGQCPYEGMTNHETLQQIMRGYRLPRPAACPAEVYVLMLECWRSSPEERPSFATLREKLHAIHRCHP
# Sequence of Tyrosine-protein kinase FRK (P42685 whole entry): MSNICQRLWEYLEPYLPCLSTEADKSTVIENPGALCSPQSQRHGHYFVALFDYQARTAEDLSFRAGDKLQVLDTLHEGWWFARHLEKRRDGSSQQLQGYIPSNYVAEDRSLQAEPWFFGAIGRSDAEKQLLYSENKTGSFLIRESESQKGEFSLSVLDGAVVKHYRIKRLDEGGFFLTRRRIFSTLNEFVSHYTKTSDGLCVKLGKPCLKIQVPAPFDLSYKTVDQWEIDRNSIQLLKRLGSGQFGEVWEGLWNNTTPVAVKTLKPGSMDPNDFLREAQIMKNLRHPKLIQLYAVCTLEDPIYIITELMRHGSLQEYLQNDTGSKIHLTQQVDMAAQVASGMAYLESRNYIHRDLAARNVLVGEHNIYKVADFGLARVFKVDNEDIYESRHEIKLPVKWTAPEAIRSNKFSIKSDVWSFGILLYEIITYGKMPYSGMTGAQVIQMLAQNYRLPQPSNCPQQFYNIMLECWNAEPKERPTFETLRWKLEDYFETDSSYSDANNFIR
compound,measurement,setting,value
CC(C)C(=O)N1CCO[C@@H](c2nc(-c3ccc(C(=O)Nc4cc(C(F)(F)F)ccn4)cc3F)c3c(N)nccn23)C1,Ratio IC50,Homo sapiens,610
same,IC50,[1],103 nM
same,IC50,[2],464 nM
same,IC50,[3],2150 nM
same,IC50,[4],706 nM
same,IC50,[5],100 nM

# Reference: ChEMBL document CHEMBL4052776, “Discovery of 3-morpholino-imidazole[1,5-a]pyrazine BTK inhibitors for rheumatoid arthritis” (Bioorg Med Chem Lett, 2017)
